Patent US20040082600A1, “Pharmaceutical composition” (priority 2001, published 2004)
In brackets after ≈: the same amount, converted by molar mass. Where two headings read alike, the source gives them in different places.

Test: Solubility in aqueous media
Format: physicochemical
Text: The compounds mentioned at the outset and pharmaceutically usable salts thereof, such as, for example, ethanolamine salts thereof, have low solubilities in aqueous media. […] These poor solubilities have the consequence that the compound can only be taken up slowly and to an inadequate extent by the body. This is associated with poor bioavailability and a slow increase in the concentration in the blood.

solubility (aqueous buffer, phosphate buffer (pH 1.0), read-out: solubility): 0.022 µg/mL (≈ 0.0456 µM)
solubility (aqueous buffer, phosphate buffer (pH 6), read-out: solubility): 0.0016 µg/mL (≈ 0.00332 µM)
solubility (aqueous buffer, phosphate buffer (pH 7.0), read-out: solubility): 0.019 µg/mL (≈ 0.0394 µM)
solubility (synthetic gastric juice): 1 mg/100 ml
solubility (synthetic intestinal juice): 6 mg/100 ml
SMILES: COc1ccc(CNc2nc(C3CCC(C(=O)O)CC3)nc3sc4ccccc4c23)cc1Cl (centres unmarked) [4-[4-(3-Chloro-4-methoxybenzylamino)benzo[4,5]thieno[2,3-d]pyrimidin-2-yl]cyclohexanecarboxylic acid]
